Test results as given in patent US20240067632A1, “WEE1 Degrading Compounds and Uses Thereof” (Bristol-Myers Squibb Company, priority 2022, published 2024).

How the values were obtained:
MKN45 cells = assay: MKN45 cell proliferation assay (Cell-Titer-Glo, 120 h); format: cell-based; conditions: for EC50: Homo sapiens, MKN-45, 120 h, Cell-Titer-Glo, growth inhibition, read-out: MKN45 Cell Prolif. 120 hr (EC50); for MKN45 Cell Prolif. 120 hr (Ymin-Obs): minimal percent of DMSO control observed in the concentrations tested
Method in brief: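 Cells seeded at 400/well onto pre-printed 10-point half-log dilutions (top 1 or 10 uM, 0.1% DMSO final), in triplicate, and grown 120 h at 37 C. Viability by Cell-Titer-Glo luminescence, blank-subtracted and normalised to DMSO; EC50 from four-parameter logistic fit, with observed minimal % of control recorded as Ymin-obs.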

WEE1 = target: T1, WEE1 (Homo sapiens, UniProt P30291+Q96SW2); assay: WEE1-ePL degradation assay (LentiX-WEE1-ePL-GSPT1-ND cells, InCELL Hunter luminescence, 4 h); format: cell-based; conditions: 293T-LentiX WEE1-ePL cells; for 293T-LentiX WEE1-ePL Degradation 4 hr (Ymin): lower limit of the fit (0 = luciferase inhibitor, Ymax = DMSO control); for DC50: read-out: 293T-LentiX WEE1-ePL Degradation 4 hr (EC50)
T1 construct: C-terminal ePL-tagged (DiscoverX, Fremont, CA) full-length WEE1 expression construct; expressed in transfected cells; host or cells: LentiX-HEK293T (Invitrogen), lentiviral transduction; co-expressing GSPT1-GN (G576N, lacking the first 158 amino acids)
Method in brief: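 First, compounds were pre-plated as 10-point, 3-fold dilutions (top 1 uM or 10 uM) with DMSO control; next, WEE1-ePL-expressing HEK293T cells were added and held 4 h at 37 °C; finally, InCELL Hunter reagent was applied for 30 min before luminescence reading. A 4PL fit gave EC50 and Ymin.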

Row | Compound | EC50 (MKN45 cells) | MKN45 Cell Prolif. 120 hr (Ymin-Obs) (MKN45 cells) | 293T-LentiX WEE1-ePL Degradation 4 hr (Ymin) (WEE1) | DC50 (WEE1)
1 | O=C1CCC(N2Cc3cc(O[C@H]4CCN(Cc5ccc6nc(C7(O)CCOCC7)ccc6c5)C4)ccc3C2=O)C(=O)N1 (stereo partly drawn) [3-(5-{[(3S)-1-{[2-(4-hydroxyoxan-4-yl)quinolin-6-yl]methyl}pyrrolidin-3-yl]oxy}-1-oxo-2,3-dihydro-1H-isoindol-2-yl)piperidine-2,6-dione] | 7.41 nM | 6.55 | 31.5 | 8.84 nM
2 | O=C1CCC(N2Cc3cc(O[C@H]4CCN(Cc5ccc6nc(N7CCC(O)CC7)ccc6c5)C4)ccc3C2=O)C(=O)N1 (stereo partly drawn) [3-(5-{[(3S)-1-{[2-(4-hydroxypiperidin-1-yl)quinolin-6-yl]methyl}pyrrolidin-3-yl]oxy}-1-oxo-2,3-dihydro-1H-isoindol-2-yl)piperidine-2,6-dione] | 6.59 nM | 9.69 | 34.5 | 2.86 nM
3 | COC1CCN(c2ccc3cc(CN4CC[C@H](Oc5ccc6c(c5)CN(C5CCC(=O)NC5=O)C6=O)C4)ccc3n2)CC1 (stereo partly drawn) [3-(5-{[(3S)-1-{[2-(4-methoxypiperidin-1-yl)quinolin-6-yl]methyl}pyrrolidin-3-yl]oxy}-1-oxo-2,3-dihydro-1H-isoindol-2-yl)piperidine-2,6-dione] | 3.75 nM | 9.39 | 30.5 | 2.49 nM
4 | CC1(c2ccc3cc(CN4CC[C@H](Oc5ccc6c(c5)CN(C5CCC(=O)NC5=O)C6=O)C4)ccc3n2)CCOCC1 (stereo partly drawn) [3-(5-{[(3S)-1-{[2-(4-methyloxan-4-yl)quinolin-6-yl]methyl}pyrrolidin-3-yl]oxy}-1-oxo-2,3-dihydro-1H-isoindol-2-yl)piperidine-2,6-dione] | 4.03 nM | 10.29 | 32 | 1.99 nM
5 | CN1CCN(c2ccc3cc(CN4CC[C@H](Oc5ccc6c(c5)CN(C5CCC(=O)NC5=O)C6=O)C4)ccc3n2)CC1 (stereo partly drawn) [3-(5-{[(3S)-1-{[2-(4-methylpiperazin-1-yl)quinolin-6-yl]methyl}pyrrolidin-3-yl]oxy}-1-oxo-2,3-dihydro-1H-isoindol-2-yl)piperidine-2,6-dione] | 20 nM | 13.365 | 33.5 | 6.77 nM
6 | O=C1CCC(N2Cc3cc(O[C@H]4CCN(Cc5ccc6nc(N7CCC7)ccc6c5)C4)ccc3C2=O)C(=O)N1 (stereo partly drawn) [3-(5-{[(3S)-1-{[2-(azetidin-1-yl)quinolin-6-yl]methyl}pyrrolidin-3-yl]oxy}-1-oxo-2,3-dihydro-1H-isoindol-2-yl)piperidine-2,6-dione] | 6.71 nM | 10.91 | 37 | 3.01 nM
7 | O=C1CCC(N2Cc3cc(O[C@H]4CCN(Cc5ccc6nc(C(F)F)ccc6c5)C4)ccc3C2=O)C(=O)N1 (stereo partly drawn) [3-(5-{[(3S)-1-{[2-(difluoromethyl)quinolin-6-yl]methyl}pyrrolidin-3-yl]oxy}-1-oxo-2,3-dihydro-1H-isoindol-2-yl)piperidine-2,6-dione] | 7.17 nM | 9.875 | 29.42 | 2.96 nM
8 | CN(C)c1ccc2cc(CN3CC[C@H](Oc4ccc5c(c4)CN(C4CCC(=O)NC4=O)C5=O)C3)ccc2n1 (stereo partly drawn) [3-(5-{[(3S)-1-{[2-(dimethylamino)quinolin-6-yl]methyl}pyrrolidin-3-yl]oxy}-1-oxo-2,3-dihydro-1H-isoindol-2-yl)piperidine-2,6-dione] | 20 nM | 12.34 | 26.59 | 2.71 nM
9 | O=C1CCC(N2Cc3cc(O[C@H]4CCN(Cc5ccc6nc(CF)ccc6c5)C4)ccc3C2=O)C(=O)N1 (stereo partly drawn) [3-(5-{[(3S)-1-{[2-(fluoromethyl)quinolin-6-yl]methyl}pyrrolidin-3-yl]oxy}-1-oxo-2,3-dihydro-1H-isoindol-2-yl)piperidine-2,6-dione] | 11.8 nM | 10.025 | 26.21 | 1.62 nM
10 | O=C1CCC(N2Cc3cc(O[C@H]4CCN(Cc5ccc6nc(CO)ccc6c5)C4)ccc3C2=O)C(=O)N1 (stereo partly drawn) [3-(5-{[(3S)-1-{[2-(hydroxymethyl)quinolin-6-yl]methyl}pyrrolidin-3-yl]oxy}-1-oxo-2,3-dihydro-1H-isoindol-2-yl)piperidine-2,6-dione] | 54.4 nM | 11.84 | 31.475 | 9.39 nM
11 | COCc1ncc2cc(CN3CC[C@H](Oc4ccc5c(c4)CN(C4CCC(=O)NC4=O)C5=O)C3)ccc2n1 (stereo partly drawn) [3-(5-{[(3S)-1-{[2-(methoxymethyl)quinazolin-6-yl]methyl}pyrrolidin-3-yl]oxy}-1-oxo-2,3-dihydro-1H-isoindol-2-yl)piperidine-2,6-dione] | 78.5 nM | 9.73 | 32 | 47.5 nM
12 | COCc1ccc2cc(CN3CC[C@H](Oc4ccc5c(c4)CN(C4CCC(=O)NC4=O)C5=O)C3)ccc2n1 (stereo partly drawn) [3-(5-{[(3S)-1-{[2-(methoxymethyl)quinolin-6-yl]methyl}pyrrolidin-3-yl]oxy}-1-oxo-2,3-dihydro-1H-isoindol-2-yl)piperidine-2,6-dione] | 20.5 nM | 8.38 | 30.5 | 5.55 nM
13 | CNc1ncc2cc(CN3CC[C@H](Oc4ccc5c(c4)CN(C4CCC(=O)NC4=O)C5=O)C3)ccc2n1 (stereo partly drawn) [3-(5-{[(3S)-1-{[2-(methylamino)quinazolin-6-yl]methyl}pyrrolidin-3-yl]oxy}-1-oxo-2,3-dihydro-1H-isoindol-2-yl)piperidine-2,6-dione] | 234 nM | 22.48 | 41 | 44.8 nM
14 | CNc1ccc2cc(CN3CC[C@H](Oc4ccc5c(c4)CN(C4CCC(=O)NC4=O)C5=O)C3)ccc2n1 (stereo partly drawn) [3-(5-{[(3S)-1-{[2-(methylamino)quinolin-6-yl]methyl}pyrrolidin-3-yl]oxy}-1-oxo-2,3-dihydro-1H-isoindol-2-yl)piperidine-2,6-dione] | 21.8 nM | 9.31 | 31.06 | 7.21 nM
15 | O=C1CCC(N2Cc3cc(O[C@H]4CCN(Cc5ccc6nc(N7CCOCC7)ncc6c5)C4)ccc3C2=O)C(=O)N1 (stereo partly drawn) [3-(5-{[(3S)-1-{[2-(morpholin-4-yl)quinazolin-6-yl]methyl}pyrrolidin-3-yl]oxy}-1-oxo-2,3-dihydro-1H-isoindol-2-yl)piperidine-2,6-dione] | 16.1 nM | 9.637 | 31.33 | 7.2 nM
16 | O=C1CCC(N2Cc3cc(O[C@H]4CCN(Cc5ccc6nc(N7CCOCC7)ccc6c5)C4)ccc3C2=O)C(=O)N1 (stereo partly drawn) [3-(5-{[(3S)-1-{[2-(morpholin-4-yl)quinolin-6-yl]methyl}pyrrolidin-3-yl]oxy}-1-oxo-2,3-dihydro-1H-isoindol-2-yl)piperidine-2,6-dione] | 11.9 nM | 12.168 | 35 | 2.69 nM
